Source: patent US11986532B2 (Arvinas Operations, Inc., priority 2021, dated 2024)
Where a name gives a salt, the structure may show the parent alone.

Target: T1, BCL6 (Homo sapiens, UniProt P41182)
T1 construct: endogenous in cells; host or cells: T47D breast cancer epithelial cells
Assay: Immunofluorescence protocol for high content imaging of BCL6 (degradation) in T47D cells, 3 days compound treatment
Type: cell-based
Details: T47D cells, 3 days compound treatment; for DC50: read-out: Mean DC50 (nM)* category; for Dmax: read-out: Mean Dmax (%)** category
Procedure, shortened: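 T47D cells in RPMI1640-10% FBS were treated with an 11-point 3-fold dilution series (final top 0.1 or 1 μM) for 3 days at 37° C. After PFA fixation and Triton permeabilization, cells were immunostained with rabbit anti-BCL6 (1:300, overnight 4° C), Alexa-488 secondary, CellMask-647 and Hoechst, then imaged at 10×, 4 fields/well.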

Structure (SMILES) | DC50 | Dmax
CNC(=O)COc1cc2cc(Nc3nc(N4CCC(O[C@H]5C[C@H](N6CCC(c7cc8c(cc7OC(C)C)C(=O)N(C7CCC(=O)NC7=O)C8=O)CC6)C5)CC4)ncc3Cl)ccc2n(C(C)C)c1=O (stereo partly shown) [Compound 159, 2-[[6-[[5-chloro-2-[4-[3-[4-[2-(2,6-dioxo-3-piperidyl)-6-isopropoxy-1,3-dioxo-isoindolin-5-yl]-1-piperidyl]cyclobutoxy]-1-piperidyl]pyrimidin-4-yl]amino]-1-isopropyl-2-oxo-3-quinolyl]oxy]-N-methyl-acetamide] | < 10 nM | ≥ 70%
CNC(=O)COc1cc2cc(Nc3nc(N4CCC(O[C@H]5C[C@H](N6CCC(c7cc8c(cc7OC)C(=O)N(C7CCC(=O)NC7=O)C8=O)CC6)C5)CC4)ncc3Cl)ccc2n(C(C)C)c1=O (stereo partly shown) [Compound 160, 2-({6-[(5-chloro-2-{4-[(1r,3r)-3-{4-[2-(2,6-dioxopiperidin-3-yl)-6-methoxy-1,3-dioxo-2,3-dihydro-1H-isoindol-5-yl]piperidin-1-yl}cyclobutoxy]piperidin-1-yl}pyrimidin-4-yl)amino]-2-oxo-1-(propan-2-yl)-1,2-dihydroquinolin-3-yl}oxy)-N-methylacetamide] | < 10 nM | ≥ 70%
CNC(=O)COc1cc2c(F)c(Nc3nc(N4CCC(CN5CCC6(CC5)CN(c5ccc7c(c5)CN(C5CCC(=O)NC5=O)C7=O)C6)CC4)ncc3Cl)ccc2n(C(C)C)c1=O (stereo not shown) [Compound 161, 2-{[6-({5-chloro-2-[4-({2-[2-(2,6-dioxopiperidin-3-yl)-1-oxo-2,3-dihydro-1H-isoindol-5-yl]-2,7-diazaspiro[3.5]nonan-7-yl}methyl)piperidin-1-yl]pyrimidin-4-yl}amino)-5-fluoro-2-oxo-1-(propan-2-yl)-1,2-dihydroquinolin-3-yl]oxy}-N-methylacetamide] | < 10 nM | ≥ 70%
CNC(=O)COc1cc2cc(Nc3nc(N4CCC(CN5CCC6(CC5)CN(c5ccc7c(c5F)CN(C5CCC(=O)NC5=O)C7=O)C6(C)C)CC4)ncc3Cl)ccc2n(C(C)C)c1=O (stereo not shown) [Compound 162, 2-{[6-({5-chloro-2-[4-({2-[2-(2,6-dioxopiperidin-3-yl)-4-fluoro-1-oxo-2,3-dihydro-1H-isoindol-5-yl]-1,1-dimethyl-2,7-diazaspiro[3.5]nonan-7-yl}methyl)piperidin-1-yl]pyrimidin-4-yl}amino)-2-oxo-1-(propan-2-yl)-1,2-dihydroquinolin-3-yl]oxy}-N-methylacetamide] | < 10 nM | ≥ 70%
CNC(=O)COc1cc2cc(Nc3nc(N4CCC(O[C@H]5C[C@H](N6CCC(c7ccc8c(c7Cl)CN(C7CCC(=O)NC7=O)C8=O)CC6)C5)CC4)ncc3Cl)ccc2n(C(C)C)c1=O (stereo partly shown) [Compound 163, 2-({6-[(5-chloro-2-{4-[(1r,3r)-3-{4-[4-chloro-2-(2,6-dioxopiperidin-3-yl)-1-oxo-2,3-dihydro-1H-isoindol-5-yl]piperidin-1-yl}cyclobutoxy]piperidin-1-yl}pyrimidin-4-yl)amino]-2-oxo-1-(propan-2-yl)-1,2-dihydroquinolin-3-yl}oxy)-N-methylacetamide] | < 10 nM | ≥ 70%
CNC(=O)COc1cc2cc(Nc3nc(N4CCC(O[C@H]5C[C@H](N6CCN(c7ccc8c(c7F)CN(C7CCC(=O)NC7=O)C8=O)CC6)C5)CC4)ncc3Cl)ccc2n(C(C)C)c1=O (stereo partly shown) [Compound 164, 2-[[6-[[5-chloro-2-[4-[3-[4-[2-(2,6-dioxo-3-piperidyl)-4-fluoro-1-oxo-isoindolin-5-yl]piperazin-1-yl]cyclobutoxy]-1-piperidyl]pyrimidin-4-yl]amino]-1-isopropyl-2-oxo-3-quinolyl]oxy]-N-methyl-acetamide formate] | < 10 nM | ≥ 70%
CNC(=O)COc1cc2cc(Nc3nc(N4CCC(O[C@H]5C[C@H](N6CCC(c7ccc8c(c7C)C(=O)N(C7CCC(=O)NC7=O)C8=O)CC6)C5)CC4)ncc3Cl)ccc2n(C(C)C)c1=O (stereo partly shown) [Compound 167, 2-({6-[(5-chloro-2-{4-[(1r,3r)-3-{4-[2-(2,6-dioxopiperidin-3-yl)-4-methyl-1,3-dioxo-2,3-dihydro-1H-isoindol-5-yl]piperidin-1-yl}cyclobutoxy]piperidin-1-yl}pyrimidin-4-yl)amino]-2-oxo-1-(propan-2-yl)-1,2-dihydroquinolin-3-yl}oxy)-N-methylacetamide] | < 10 nM | ≥ 70%
CNC(=O)COc1cc2cc(Nc3nc(N4CCC(CN5CCC6(CC5)CC5(CN(c7ccc8c(c7)CN(C7CCC(=O)NC7=O)C8=O)C5)C6)CC4)ncc3Cl)ccc2n(C(C)C)c1=O (stereo not shown) [Compound 168, 2-{[6-({5-chloro-2-[4-({2-[2-(2,6-dioxopiperidin-3-yl)-1-oxo-2,3-dihydro-1H-isoindol-5-yl]-2,9-diazadispiro[3.1.5^6.1^4]dodecan-9-yl}methyl)piperidin-1-yl]pyrimidin-4-yl}amino)-2-oxo-1-(propan-2-yl)-1,2-dihydroquinolin-3-yl]oxy}-N-methylacetamide] | < 10 nM | 50 to 70%
CNC(=O)COc1cc2c(F)c(Nc3nc(N4CCN(CC5CCC6(CC5)CN(c5cccc7c5C(=O)N(C5CCC(=O)NC5=O)C7=O)C6)CC4)ncc3Cl)ccc2n(C(C)C)c1=O (stereo not shown) [Compound 169, 2-{[6-({5-chloro-2-[4-({2-[2-(2,6-dioxopiperidin-3-yl)-1,3-dioxo-2,3-dihydro-1H-isoindol-4-yl]-2-azaspiro[3.5]nonan-7-yl}methyl)piperazin-1-yl]pyrimidin-4-yl}amino)-5-fluoro-2-oxo-1-(propan-2-yl)-1,2-dihydroquinolin-3-yl]oxy}-N-methylacetamide] | < 10 nM | ≥ 70%
CNC(=O)COc1cc2cc(Nc3nc(N4CCC(O[C@H]5C[C@H](N6CCN(c7ccc8c(c7)CN(C7CCC(=O)NC7=O)C8=O)C(C)(C)C6)C5)CC4)ncc3Cl)ccc2n(C(C)C)c1=O (stereo partly shown) [Compound 170, 2-({6-[(5-chloro-2-{4-[(1r,3r)-3-{4-[2-(2,6-dioxopiperidin-3-yl)-1-oxo-2,3-dihydro-1H-isoindol-5-yl]-3,3-dimethylpiperazin-1-yl}cyclobutoxy]piperidin-1-yl}pyrimidin-4-yl)amino]-2-oxo-1-(propan-2-yl)-1,2-dihydroquinolin-3-yl}oxy)-N-methylacetamide] | < 10 nM | ≥ 70%
CNC(=O)COc1cc2c(F)c(Nc3nc(N4CCC(CN5CCC6(CN(c7ccc8c(c7)CN(C7CCC(=O)NC7=O)C8=O)C6)C(F)(F)C5)CC4)ncc3Cl)ccc2n(C(C)C)c1=O (stereo not shown) [Compound 171, 2-{[6-({5-chloro-2-[4-({2-[2-(2,6-dioxopiperidin-3-yl)-1-oxo-2,3-dihydro-1H-isoindol-5-yl]-5,5-difluoro-2,7-diazaspiro[3.5]nonan-7-yl}methyl)piperidin-1-yl]pyrimidin-4-yl}amino)-5-fluoro-2-oxo-1-(propan-2-yl)-1,2-dihydroquinolin-3-yl]oxy}-N-methylacetamide] | < 10 nM | ≥ 70%
CNC(=O)COc1cc2c(F)c(Nc3nc(N4CCC(O[C@H]5C[C@H](N6CCC(c7ccc8c(c7)C(=O)N(C7CCC(=O)NC7=O)C8=O)CC6)C5)CC4)ncc3Cl)ccc2n(C(C)C)c1=O (stereo partly shown) [Compound 172, 2-({6-[(5-chloro-2-{4-[(1r,3r)-3-{4-[2-(2,6-dioxopiperidin-3-yl)-1,3-dioxo-2,3-dihydro-1H-isoindol-5-yl]piperidin-1-yl}cyclobutoxy]piperidin-1-yl}pyrimidin-4-yl)amino]-5-fluoro-2-oxo-1-(propan-2-yl)-1,2-dihydroquinolin-3-yl}oxy)-N-methylacetamide] | < 10 nM | ≥ 70%
CNC(=O)COc1cc2c(F)c(Nc3nc(N4CCC(O[C@H]5C[C@H](N6CCC(c7ccc8c(c7F)CN(C7CCC(=O)NC7=O)C8=O)CC6)C5)CC4)ncc3Cl)ccc2n(C(C)C)c1=O (stereo partly shown) [Compound 173] | < 10 nM | ≥ 70%
CNC(=O)COc1cc2cc(Nc3nc(N4CCC(O[C@H]5C[C@H](N6C[C@@H](C)N(c7ccc8c(c7)CN(C7CCC(=O)NC7=O)C8=O)[C@@H](C)C6)C5)CC4)ncc3Cl)ccc2n(C(C)C)c1=O (stereo partly drawn) [Compound 174, 2-({6-[(5-chloro-2-{4-[(1r,3r)-3-[(3R,5S)-4-[2-(2,6-dioxopiperidin-3-yl)-1-oxo-2,3-dihydro-1H-isoindol-5-yl]-3,5-dimethylpiperazin-1-yl]cyclobutoxy]piperidin-1-yl}pyrimidin-4-yl)amino]-2-oxo-1-(propan-2-yl)-1,2-dihydroquinolin-3-yl}oxy)-N-methylacetamide] | < 10 nM | ≥ 70%
CNC(=O)COc1cc2cc(Nc3nc(N4CCC(O[C@H]5C[C@H](N6CCN(c7ccc8c(c7F)CN(C7CCC(=O)NC7=O)C8=O)[C@H](C)C6)C5)CC4)ncc3Cl)ccc2n(C(C)C)c1=O (stereo partly shown) [Compound 175] | < 10 nM | ≥ 70%
CNC(=O)COc1cc2cc(Nc3nc(N4CCC(O[C@H]5C[C@H](N6CCN(c7ccc8c(c7C)C(=O)N(C7CCC(=O)NC7=O)C8=O)CC6)C5)CC4)ncc3Cl)ccc2n(C(C)C)c1=O (stereo partly shown) [Compound 177, 2-({6-[(5-chloro-2-{4-[(1r,3r)-3-{4-[2-(2,6-dioxopiperidin-3-yl)-4-methyl-1,3-dioxoisoindol-5-yl]piperazin-1-yl}cyclobutoxy]piperidin-1-yl}pyrimidin-4-yl)amino]-1-isopropyl-2-oxoquinolin-3-yl}oxy)-N-methylacetamide] | < 10 nM | ≥ 70%
CNC(=O)COc1cc2cc(Nc3nc(N4CCC(O[C@H]5C[C@H](N6CCN(c7ccc8c(c7F)CN(C7CCC(=O)NC7=O)C8=O)C[C@@H]6C)C5)CC4)ncc3Cl)ccc2n(C(C)C)c1=O (stereo partly shown) [Compound 178] | < 10 nM | ≥ 70%
